This note sets out measurements from US7223771B2, “Tricyclic imidazopyridines” (Altana Pharma AG, priority 2001, dated 2007).

The test system of this experiment is pentagastrin-stimulated acid secretion of the perfused rat stomach. The conditions noted are these: anesthetized CD rat, dose 3.0 μmol/kg i.d. (intraduodenal). The text has this:
Testing of the Secretion-Inhibiting Action on the Perfused Rat Stomach
The abdomen of anesthetized rats (CD rat, female, 200–250 g; 1.5 g/kg i.m. urethane) was opened after tracheotomy by a median upper abdominal incision and a PVC catheter was fixed transorally in the esophagus and another via the pylorus such that the ends of the tubes just projected into the gastric lumen. The catheter leading from the pylorus led outward into the right abdominal wall through a side opening.
After thorough rinsing (about 50–100 ml), warm (37° C.) physiological NaCl solution was continuously passed through the stomach (0.5 ml/min, pH 6.8–6.9; Braun-Unita I). The pH (pH meter 632, glass electrode EA 147; φ=5 mm, Metrohm) and, by titration with a freshly prepared 0.01N NaOH solution to pH 7 (Dosimat 665 Metrohm), the secreted HCl were determined in the effluent in each case collected at an interval of 15 minutes.
The gastric secretion was stimulated by continuous infusion of 1 μg/kg (=1.65 ml/h) of i.v. pentagastrin (left femoral vein) about 30 min after the end of the operation (i.e. after determination of 2 preliminary fractions). The substances to be tested were administered intraduodenally in a 2.5 ml/kg liquid volume 60 min after the start of the continuous pentagastrin infusion.
The body temperature of the animals was kept at a constant 37.8–38° C. by infrared irradiation and heat pads (automatic, stepless control by means of a rectal temperature sensor).
Regarding `CCOC(=O)c1cn2c(C)c(C)nc2c2c1CCC(c1ccccc1)O2` (stereo not drawn) [Example 2, Ethyl 2,3-dimethyl-9-phenyl-7H-8,9-dihydro-pyrano[2,3-c]-imidazo[1,2-a]pyridine-6-carboxylate], the “Inhibition of acid secretion” value came out at 100%.

With `Cc1nc2c3c(c(C(=O)N(C)C)cn2c1C)CCC(c1ccccc1)O3` (stereo not drawn) [Example 3, 2,3-Dimethyl-9-phenyl-7H-8,9-dihydro-pyrano[2,3-c]-imidazo[1,2-a]pyridine-6-(N,N-dimethyl)carbamide], the “Inhibition of acid secretion” value turned out to be 100%.

As for `CCN(CC)C(=O)c1cn2c(C)c(C)nc2c2c1CCC(c1ccccc1)O2` (stereo not drawn) [Example 1, 2,3-Dimethyl-9-phenyl-7H-8,9-dihydro-pyrano-[2,3-c]-N-(diethyl)imidazo[1,2-a]pyridine-6-carboxamide], the “Inhibition of acid secretion” value came to 100%.
